From ChEMBL document CHEMBL4420076, “Amylin and calcitonin receptor agonist” (2017)
Numbered stars: 1 amine (or outer) side, 2 acyl side, 3 side chain; on linkers, the order of the positions; unused ones are H or OH. Peptide text beside a SMILES is read from it. * marks the point of attachment. C20 diacid = O=C(O)CCCCCCCCCCCCCCCCCCC(=O)*; C18 diacid = O=C(O)CCCCCCCCCCCCCCCCC(=O)*; γGlu = O=C(O)[C@H](CCC(=O)[*:2])N[*:1]; AEEA = NCCOCCOCC(=O)O

How the values were obtained:
[1] = tested on: Rattus norvegicus; assay: Reduction in body weight in Sprague-Dawley rat model of diet-induced obesity assessed as relative body weight at 0.1 mg/kg, sc dosed dosed once daily during 0 to 28 days and measured on day 28 relative to initial body weight (reference value: 99.8 +.- 1.1%); format: functional; design: scale not given: the % may be the effect or the level left
[2] = Solubility in 100 mM bistrispropane buffer at pH 7.5 incubated for 18 hrs by UPLC analysis; format: physicochemical
[3] = Solubility in 100 mM glycylglycine buffer at pH 3.0 incubated for 18 hrs by UPLC analysis; format: physicochemical
[4] = Solubility in 100 mM bistrispropane buffer at pH 6.5 incubated for 18 hrs by UPLC analysis; format: physicochemical
[5] = target: T1, Calcitonin receptor (Homo sapiens, UniProt P30988); assay: Agonist activity at human calcitonin receptor expressed in BHK570 cells assessed as increase in intracellular cAMP concentration incubated for 3 hrs in presence of 10% FBS by CRE luciferase reporter gene assay; format: functional, cell-based
T1 sequence (P30988 whole entry): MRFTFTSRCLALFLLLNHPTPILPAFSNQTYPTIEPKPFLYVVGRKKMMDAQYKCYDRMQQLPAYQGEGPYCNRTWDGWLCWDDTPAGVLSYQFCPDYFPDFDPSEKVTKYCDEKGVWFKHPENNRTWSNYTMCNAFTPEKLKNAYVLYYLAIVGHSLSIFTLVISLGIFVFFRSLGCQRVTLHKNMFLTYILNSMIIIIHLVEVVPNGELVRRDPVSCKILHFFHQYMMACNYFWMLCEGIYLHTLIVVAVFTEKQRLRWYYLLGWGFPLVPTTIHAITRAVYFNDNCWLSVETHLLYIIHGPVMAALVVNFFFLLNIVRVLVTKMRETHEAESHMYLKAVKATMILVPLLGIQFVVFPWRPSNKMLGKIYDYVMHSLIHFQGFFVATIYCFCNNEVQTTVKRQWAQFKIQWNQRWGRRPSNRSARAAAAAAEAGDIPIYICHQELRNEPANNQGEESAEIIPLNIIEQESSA

[6] = Solubility in 100 mM glycylglycine buffer at pH 5.0 incubated for 18 hrs by UPLC analysis; format: physicochemical
[7] = target: T2, Amylin receptor AMY3; CALCR/RAMP3 (Homo sapiens, UniProt O60896+P30988); assay: Agonist activity at human amylin receptor expressed in BHK570 cells co-expressing RAMP3 assessed as increase in intracellular cAMP concentration incubated for 3 hrs in absence of albumin by CRE luciferase reporter gene assay; format: functional, cell-based
T2 sequence (P30988 whole entry): T1 sequence (P30988 whole entry)
T2 sequence (O60896 whole entry): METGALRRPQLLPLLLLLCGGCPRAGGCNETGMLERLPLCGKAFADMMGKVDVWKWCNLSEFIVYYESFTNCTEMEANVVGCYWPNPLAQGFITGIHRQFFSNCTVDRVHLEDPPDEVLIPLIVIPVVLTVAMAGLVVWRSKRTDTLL

[8] = target: T1, Calcitonin receptor; assay: Agonist activity at human calcitonin receptor expressed in BHK570 cells assessed as increase in intracellular cAMP concentration incubated for 3 hrs in absence of albumin by CRE luciferase reporter gene assay; format: functional, cell-based
[9] = Solubility in 100 mM glycylglycine buffer at pH 4.0 incubated for 18 hrs by UPLC analysis; format: physicochemical
[10] = target: T1, Calcitonin receptor; assay: Displacement of [125I]-labeled human calcitonin from human calcitonin receptor expressed in BHK tkts13 whole cells incubated for 60 mins by scintillation proximity assay; format: cell-based
[11] = target: T2, Amylin receptor AMY3; CALCR/RAMP3; assay: Displacement of [125I]-labeled rat amylin from human amylin receptor expressed in BHK tkts13 whole cells co-expressing RAMP3 incubated for 60 mins by scintillation proximity assay; format: cell-based
[12] = Solubility in 100 mM bistrispropane buffer at pH 8.0 incubated for 18 hrs by UPLC analysis; format: physicochemical
[13] = target: T2, Amylin receptor AMY3; CALCR/RAMP3; assay: Displacement of [125I]-labeled rat amylin from human amylin receptor expressed in BHK570 cell membranes co-expressing RAMP3 incubated for 120 mins by scintillation proximity assay
[14] = Stability in pH 7.5 buffer assessed as lag time for fibril formation at 1 uM by Thioflavin T based fluorescence assay; format: physicochemical; conditions: pH 7.5, 1 µM
[15] = target: T2, Amylin receptor AMY3; CALCR/RAMP3; assay: Agonist activity at human amylin receptor expressed in BHK570 cells co-expressing RAMP3 assessed as increase in intracellular cAMP concentration incubated for 3 hrs in presence of 10% FBS by CRE luciferase reporter gene assay; format: functional, cell-based
[16] = Stability in pH 7.5 buffer assessed as compound recovery at 1 uM by Thioflavin T based fluorescence assay; format: physicochemical; conditions: read-out: Drug recovery
[17] = Solubility in 100 mM bistrispropane buffer at pH 6.0 incubated for 18 hrs by UPLC analysis; format: physicochemical
[18] = target: T1, Calcitonin receptor; assay: Displacement of [125I]-labeled human calcitonin from human calcitonin receptor expressed in BHK tkts13 cell membranes incubated for 1 hr by scintillation proximity assay
[19] = Solubility in 100 mM bistrispropane buffer at pH 7.0 incubated for 18 hrs by UPLC analysis; format: physicochemical
[20] = tested on: Rattus norvegicus; assay: Reduction in food intake in Sprague-Dawley rat at 3 nmol/kg measured 24 to 48 hrs post dose relative to control; format: functional; design: scale not given: the % may be the effect or the level left
[21] = Half life in LYD pig at 1.6 mM, sc co-dosed with 1.6 mM liraglutide by LC-MS analysis; format: ADME, organism-based, Sus scrofa; conditions: in vivo
[22] = Dose normalized AUC in LYD pig at 1.6 mM, sc co-dosed with 1.6 mM liraglutide by LC-MS analysis; format: ADME, organism-based, Sus scrofa; conditions: in vivo, 1600 µM
[23] = Dose normalized AUC in LYD pig at 1.6 mM, sc co-formulated with 1.6 mM liraglutide by LC-MS analysis; format: ADME, organism-based, Sus scrofa; conditions: in vivo, 1600 µM
[24] = tested on: Rattus norvegicus; assay: Reduction in food intake in Sprague-Dawley rat at 3 nmol/kg measured 0 to 24 hrs post dose relative to control; format: functional; design: scale not given: the % may be the effect or the level left
[25] = Half life in LYD pig at 1.6 mM, sc co-formulated with 1.6 mM liraglutide by LC-MS analysis; format: ADME, organism-based, Sus scrofa; conditions: in vivo
[26] = Terminal half life in Sprague-Dawley rat at 20 nmol/kg, sc by LC-MS analysis; format: ADME, organism-based; conditions: in vivo, read-out: beta t1/2 (converted)

Row | SMILES | solubility at 18 h [2] [µM] | solubility at 18 h [3] [µM] | solubility at 18 h [4] [µM] | EC50 [5] [nM] | solubility at 18 h [6] [µM] | EC50 [7] [nM] | EC50 [8] [nM] | solubility at 18 h [9] [µM] | solubility at 18 h [12] [µM] | Time [14] [h] | EC50 [15] [nM] | remaining at 1 µM [16] [%] | solubility at 18 h [17] [µM] | solubility at 18 h [19] [µM] | further results
1 | CCCCCCCCCCCCCCCC(=O)N[C@@H](CCC(=O)NCCCC[C@H](NC(=O)[C@H](C)NC(=O)[C@H](C)NC(=O)[C@H](CCC(N)=O)NC(=O)CNC(=O)[C@H](CCC(=O)O)NC(=O)[C@H](CC(C)C)NC(=O)[C@H](Cc1ccc(O)cc1)NC(=O)[C@H](CO)NC(=O)[C@H](CO)NC(=O)[C@@H](NC(=O)[C@H](CC(=O)O)NC(=O)[C@H](CO)NC(=O)[C@@H](NC(=O)[C@H](Cc1ccccc1)NC(=O)[C@@H](NC(=O)CNC(=O)[C@H](CCC(=O)O)NC(=O)[C@H](C)NC(=O)[C@@H](N)Cc1cnc[nH]1)[C@@H](C)O)[C@@H](C)O)C(C)C)C(=O)N[C@@H](CCC(=O)O)C(=O)N[C@@H](Cc1ccccc1)C(=O)N[C@H](C(=O)N[C@@H](C)C(=O)N[C@@H](Cc1c[nH]c2ccccc12)C(=O)N[C@@H](CC(C)C)C(=O)N[C@H](C(=O)N[C@@H](CCCNC(=N)N)C(=O)NCC(=O)N[C@@H](CCCNC(=N)N)C(=O)NCC(=O)O)C(C)C)[C@@H](C)CC)C(=O)O [LIRAGLUTIDE] | – | – | – | – | – | – | – | – | – | – | – | – | – | – | Activity [1]: 93.9%
2 | CC(C)C[C@H](NC(=O)[C@H](C)NC(=O)[C@H](C)NC(=O)[C@@H](NC(=O)[C@H](CO)NC(=O)[C@H](CC(C)C)NC(=O)[C@H](CCC(=O)O)NC(=O)[C@H](CO)NC(=O)[C@H](C)NC(=O)COCCOCCNC(=O)COCCOCCNC(=O)COCCOCCNC(=O)CC[C@H](NC(=O)CCCCCCCCCCCCCCCCCCC(=O)O)C(=O)O)[C@@H](C)O)C(=O)NCC(=O)N[C@@H](CCCNC(=N)N)C(=O)N[C@@H](CC(C)C)C(=O)N[C@@H](CO)C(=O)N[C@@H](C)C(=O)N[C@@H](CCC(=O)O)C(=O)N[C@@H](CC(C)C)C(=O)N[C@@H](Cc1cnc[nH]1)C(=O)N[C@@H](CCC(=O)O)C(=O)N[C@@H](CC(C)C)C(=O)N[C@@H](C)C(=O)N[C@H](C(=O)N[C@@H](CC(C)C)C(=O)N1CCC[C@H]1C(=O)N[C@@H](CCCNC(=N)N)C(=O)N[C@H](C(=O)N[C@@H](CCC(=O)O)C(=O)N[C@H](C(=O)NCC(=O)N[C@@H](CO)C(=O)NCC(=O)N[C@@H](CO)C(=O)N1CCC[C@H]1C(N)=O)[C@@H](C)O)[C@@H](C)O)[C@@H](C)O ({C20 diacid-γGlu-AEEA-AEEA-AEEA}-ASELSTAALGRLSAELHELATLPRTETGSGSP-NH2) | ≥ 200 | ≥ 200 | ≥ 200 | 0.025 | ≥ 200 | 0.018 | 0.011 | ≥ 200 | ≥ 200 | > 45 | 0.068 | 100 | ≥ 200 | ≥ 200 | IC50 [10]: 0.352 nM; IC50 [11]: 0.432 nM; IC50 [13]: 0.164 nM; IC50 [18]: 0.05 nM
3 | CC(C)C[C@H](NC(=O)[C@H](C)NC(=O)[C@H](C)NC(=O)[C@@H](NC(=O)[C@H](CO)NC(=O)[C@H](CC(C)C)NC(=O)[C@H](CCC(=O)O)NC(=O)[C@H](CO)NC(=O)[C@H](C)NC(=O)CC[C@H](NC(=O)CCCCCCCCCCCCCCCCC(=O)O)C(=O)O)[C@@H](C)O)C(=O)NCC(=O)N[C@@H](CCCNC(=N)N)C(=O)N[C@@H](CC(C)C)C(=O)N[C@@H](CO)C(=O)N[C@@H](C)C(=O)N[C@@H](CCC(=O)O)C(=O)N[C@@H](CC(C)C)C(=O)N[C@@H](Cc1cnc[nH]1)C(=O)N[C@@H](CCC(=O)O)C(=O)N[C@@H](CC(C)C)C(=O)N[C@@H](C)C(=O)N[C@H](C(=O)N[C@@H](CC(C)C)C(=O)N1CCC[C@H]1C(=O)N[C@@H](CCCNC(=N)N)C(=O)N[C@H](C(=O)N[C@@H](CCC(=O)O)C(=O)N[C@H](C(=O)NCC(=O)N[C@@H](CO)C(=O)NCC(=O)N[C@@H](CO)C(=O)N1CCC[C@H]1C(N)=O)[C@@H](C)O)[C@@H](C)O)[C@@H](C)O ({C18 diacid-γGlu}-ASELSTAALGRLSAELHELATLPRTETGSGSP-NH2) | ≥ 200 | ≥ 200 | ≥ 200 | 0.011 | ≥ 200 | 0.016 | 0.017 | ≥ 200 | ≥ 200 | > 45 | 0.026 | 100 | ≥ 200 | ≥ 200 | Activity [20]: 78%; half-life at 1600 µM [21]: 129 h; AUC/dose [22]: 624 kg·h/L; AUC/dose [23]: 656 kg·h/L; Activity [24]: 82%; half-life at 1600 µM [25]: 133 h
4 | CC(C)C[C@H](NC(=O)[C@H](CCCCN)NC(=O)CNC(=O)[C@H](CC(C)C)NC(=O)[C@@H](NC(=O)[C@H](CS)NC(=O)[C@@H](NC(=O)[C@H](CO)NC(=O)[C@H](CC(C)C)NC(=O)[C@H](CC(N)=O)NC(=O)[C@H](CO)NC(=O)[C@@H](N)CS)[C@@H](C)O)C(C)C)C(=O)N[C@@H](CO)C(=O)N[C@@H](CCC(N)=O)C(=O)N[C@@H](CCC(=O)O)C(=O)N[C@@H](CC(C)C)C(=O)N[C@@H](Cc1cnc[nH]1)C(=O)N[C@@H](CCCCN)C(=O)N[C@@H](CC(C)C)C(=O)N[C@@H](CCC(N)=O)C(=O)N[C@H](C(=O)N[C@@H](Cc1ccc(O)cc1)C(=O)N1CCC[C@H]1C(=O)N[C@@H](CCCNC(=N)N)C(=O)N[C@H](C(=O)N[C@@H](CC(N)=O)C(=O)N[C@H](C(=O)NCC(=O)N[C@@H](CO)C(=O)NCC(=O)N[C@H](C(=O)N1CCC[C@H]1C(=O)O)[C@@H](C)O)[C@@H](C)O)[C@@H](C)O)[C@@H](C)O | – | – | – | – | – | – | – | – | – | – | – | – | – | – | half-life [26]: 1 h
